We go through one compound from ChEMBL document CHEMBL2073920 (Eur J Pharmacol, 1998).

The target of series [1] is T1, ATP-dependent translocase ABCB1 (Homo sapiens, UniProt P08183). The series is described as follows: TP_TRANSPORTER: inhibition of Rhodamine 123 transepithelial transport (basal to apical)(R123: 5 uM, Midazolam: 100 uM) in Caco-2 cells. The series is classed as functional, cell-based. Particulars: caco-2, 100 µM. A general note: Caco-2 cells form a polarised layer with tight junctions and transporters.

The target of series [2] is T1, ATP-dependent translocase ABCB1. The series is described as follows: TP_TRANSPORTER: transepithelial transport (basal to apical) in Caco-2 cells. The format is functional, cell-based.

T1 sequence (P08183 whole entry): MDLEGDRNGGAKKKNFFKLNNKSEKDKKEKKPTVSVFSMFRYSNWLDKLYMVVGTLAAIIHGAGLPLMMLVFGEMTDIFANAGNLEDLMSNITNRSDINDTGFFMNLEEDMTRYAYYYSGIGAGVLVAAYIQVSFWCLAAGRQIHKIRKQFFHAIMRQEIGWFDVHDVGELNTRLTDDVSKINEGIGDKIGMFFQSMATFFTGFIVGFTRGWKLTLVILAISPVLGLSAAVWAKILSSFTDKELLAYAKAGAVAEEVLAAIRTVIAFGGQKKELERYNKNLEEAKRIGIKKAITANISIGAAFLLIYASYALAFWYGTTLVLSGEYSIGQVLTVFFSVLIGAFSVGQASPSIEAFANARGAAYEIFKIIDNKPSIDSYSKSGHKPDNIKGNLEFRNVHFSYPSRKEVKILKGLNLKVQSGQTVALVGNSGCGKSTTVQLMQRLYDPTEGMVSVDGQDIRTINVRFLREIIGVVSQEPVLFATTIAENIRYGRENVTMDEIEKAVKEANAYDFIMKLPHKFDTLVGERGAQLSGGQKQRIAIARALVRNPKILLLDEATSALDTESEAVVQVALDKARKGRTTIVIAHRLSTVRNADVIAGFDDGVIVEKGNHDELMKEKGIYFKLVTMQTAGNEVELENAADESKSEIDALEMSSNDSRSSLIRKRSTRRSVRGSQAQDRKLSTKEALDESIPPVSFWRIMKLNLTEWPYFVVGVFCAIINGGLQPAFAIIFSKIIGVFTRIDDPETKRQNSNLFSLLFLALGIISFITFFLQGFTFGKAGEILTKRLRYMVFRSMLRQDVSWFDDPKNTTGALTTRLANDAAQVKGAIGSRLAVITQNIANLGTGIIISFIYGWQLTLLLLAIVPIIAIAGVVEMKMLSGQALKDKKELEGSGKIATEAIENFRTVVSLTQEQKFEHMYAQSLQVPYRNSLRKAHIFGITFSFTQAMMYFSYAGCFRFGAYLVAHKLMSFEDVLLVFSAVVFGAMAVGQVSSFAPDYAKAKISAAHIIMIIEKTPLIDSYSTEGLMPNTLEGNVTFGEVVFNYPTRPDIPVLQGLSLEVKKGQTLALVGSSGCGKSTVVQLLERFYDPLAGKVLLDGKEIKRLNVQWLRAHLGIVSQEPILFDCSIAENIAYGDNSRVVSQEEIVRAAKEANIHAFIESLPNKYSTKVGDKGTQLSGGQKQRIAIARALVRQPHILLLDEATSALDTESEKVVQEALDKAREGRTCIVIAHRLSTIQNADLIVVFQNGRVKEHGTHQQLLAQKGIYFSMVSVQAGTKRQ

Take `Cc1ncc2n1-c1ccc(Cl)cc1C(c1ccccc1F)=NC2` [MIDAZOLAM]: the Activity result is “inhibitor [(at a rough estimate) 55 % of control]” in series [1] and “substrate [+]” in series [2].
